The assay concerns fibroblastes d'un patient souffrant de CMTX. In words: Abnormal cell nuclei (DAPI staining, Mitocheck classification) in fibroblasts of a CMTX patient. Type of assay: cell-based, humain. Conditions: fibroblasts of the CMTX1 patient treated with clémastine at 10µmole; untreated patient cells about 30%, healthy individual less than 1% (Figure 1). The text has this: Les anomalies des noyaux cellulaires sont étudiées en déposant les fiboblastes sur des lames de microscopie et en colorant les noyaux à de l'aide 4',6-diamidino-2-phénylindole, ou DAPI, les rendant ainsi fluorescents. Les anomalies nucléaires sont classées selon la classification établie par le Mitocheck, à savoir : i) les noyaux mal formés, ii) les noyaux polylobés, iii) les noyaux non séparés et iv) les autres.

In the case of `CN1CCC[C@@H]1CCO[C@](C)(c1ccccc1)c1ccc(Cl)cc1` [clémastine], the “pourcentage des noyaux anormaux” value is around 5%.

These data come from patent publication EP3797769A1, “COMPOSITION FOR THERAPEUTIC USE” (Fontès, M. Michel, priority 2019, dated 2021).
